# In US20230107642A1 (Erasca, Inc., priority 2020, published 2023):
# Molecular target: T1, K-Ras G12C (Homo sapiens, UniProt P01116, G12C)
# T1 construct: This protein contained 188 amino acids in total, including an N-terminal 6-Histidine tag; made in house; host or cells: E. coli BL21
# Assay: CAF assay (% CAF; method in Example 7, not in this part)
# Type: binding
# Conditions: 10 uM compound, 1 h incubation
row,"% CAF @ 10 uM, 1h [%]",Structure (SMILES)
1,89.5,"C=CC(=O)N1C[C@H](C)N(c2nc(=O)n3c4c(c(-c5ccc(F)cc5F)c(C(F)(F)F)cc24)SC[C@@H]3CN2CCN(CC(N)=O)CC2)C[C@H]1C [Example 575, 2-(4-(((3S)-7-((2S,5R)-4-acryloyl-2,5-dimethylpiperazin-1-yl)-10-(2,4-difluorophenyl)-5-oxo-9-(trifluoromethyl)-3,5-dihydro-2H-[1,4]thiazino[2,3,4-ij]quinazolin-3-yl)methyl)piperazin-1-yl)acetamide]"
2,59.4,"C=CC(=O)N1C[C@H](C)N(c2nc(=O)n3c4c(c(-c5ccc(F)cc5)c(C(F)(F)F)cc24)SC[C@@H]3CC2CN(CC(F)F)C2)C[C@H]1C [Example 481, (S)-7-((2S,5R)-4-acryloyl-2,5-dimethylpiperazin-1-yl)-3-((1-(2,2-difluoroethyl)azetidin-3-yl)methyl)-10-(4-fluorophenyl)-9-(trifluoromethyl)-2,3-dihydro-5H-[1,4]thiazino[2,3,4-ij]quinazolin-5-one]"
3,80.5,"C=CC(=O)N1[C@H](C)CN(c2nc(=O)n3c4c(c(-c5ccc(F)cc5F)c(C(F)(F)F)cc24)SC[C@@H]3CN2CCC3(CC2)COC3)C[C@@H]1C (atropisomer, axis not shown) [Example 576, (3S,10S)-3-(2-oxa-7-azaspiro[3.5]nonan-7-ylmethyl)-7-((3S,5R)-4-acryloyl-3,5-dimethylpiperazin-1-yl)-10-(2,4-difluorophenyl)-9-(trifluoromethyl)-2H-[1,4]thiazino[2,3,4-ij]quinazolin-5(3H)-one]"
4,77.7,"C=CC(=O)N1[C@H](C)CN(c2nc(=O)n3c4c(c(-c5cc(Cl)c(F)cc5F)c(C(F)(F)F)cc24)SC[C@@H]3CN2CCC3(CC2)COC3)C[C@@H]1C (atropisomer, axis not shown) [Example 566, (3S,10R)-3-((2-oxa-7-azaspiro[3.5]nonan-7-yl)methyl)-7-((3S,5R)-4-acryloyl-3,5-dimethylpiperazin-1-yl)-10-(5-chloro-2,4-difluorophenyl)-9-(trifluoromethyl)-2,3-dihydro-5H-[1,4]thiazino[2,3,4-ij]quinazolin-5-one]"
5,65.8,"C=CC(=O)N1C[C@H](C)N(c2nc(=O)n3c4c(c(-c5ccc(F)cc5)c(Cl)cc24)SC[C@@H]3CN2CCC3(CC2)COC3)C[C@H]1C [Example 473, (S)-3-(2-oxa-7-azaspiro[3.5]nonan-7-ylmethyl)-7-((2S,5R)-4-acryloyl-2,5-dimethylpiperazin-1-yl)-9-chloro-10-(4-fluorophenyl)-2H-[1,4]thiazino[2,3,4-ij]quinazolin-5(3H)-one]"
6,79.6,"C=CC(=O)N1CCN(c2nc(=O)n3c4c(c(-c5ccc(F)cc5)c(C(F)(F)F)cc24)SC[C@@H]3CC2CCN(CC(F)F)CC2)[C@@H](C)C1 [Example 428, (S)-7-((S)-4-acryloyl-2-methylpiperazin-1-yl)-3-((1-(2,2-difluoroethyl)piperidin-4-yl)methyl)-10-(4-fluorophenyl)-9-(trifluoromethyl)-2H-[1,4]thiazino[2,3,4-ij]quinazolin-5(3H)-one]"

# More lines, now with the values behind:
row,Structure (SMILES),"% CAF @ 10 uM, 1h [%]"
1,"C=CC(=O)N1C[C@H](C)N(c2nc(=O)n3c4c(c(-c5cc(Cl)c(F)cc5F)c(C(F)(F)F)cc24)SC[C@@H]3COC)C[C@H]1C [Example 492, (3S)-7-((2S,5R)-4-acryloyl-2,5-dimethylpiperazin-1-yl)-10-(5-chloro-2,4-difluorophenyl)-3-(methoxymethyl)-9-(trifluoromethyl)-2H-[1,4]thiazino[2,3,4-ij]quinazolin-5(3H)-one]",63.2
2,"C=CC(=O)N1C2CC(=O)CC1CN(c1nc(=O)n3c4c(c(-c5ccc(F)cc5F)c(C(F)(F)F)cc14)SC[C@@H]3COC)C2 [Example 571, (3S)-7-(9-acryloyl-7-oxo-3,9-diazabicyclo[3.3.1]nonan-3-yl)-10-(2,4-difluorophenyl)-3-(methoxymethyl)-9-(trifluoromethyl)-2H-[1,4]thiazino[2,3,4-ij]quinazolin-5(3H)-one]",95.2
3,"C=CC(=O)N1CCN(c2nc(=O)n3c4c(c(-c5cc(Cl)c(F)cc5F)c(C(F)(F)F)cc24)SC[C@@H]3COCOC)[C@@H](C)C1 (atropisomer, axis not shown) [Example 553, (3S,10S)-7-((S)-4-acryloyl-2-methylpiperazin-1-yl)-10-(5-chloro-2,4-difluorophenyl)-3-((methoxymethoxy)methyl)-9-(trifluoromethyl)-2H-[1,4]thiazino[2,3,4-ij]quinazolin-5(3H)-one]",37
4,"C=CC(=O)N1CCN(c2nc(=O)n3c4c(c(-c5cc(Cl)c(F)cc5F)c(C(F)(F)F)cc24)SC[C@@H]3COCOC)[C@@H](C)C1 (atropisomer, axis not shown) [Example 552, (3S,10R)-7-((S)-4-acryloyl-2-methylpiperazin-1-yl)-10-(5-chloro-2,4-difluorophenyl)-3-((methoxymethoxy)methyl)-9-(trifluoromethyl)-2,3-dihydro-5H-[1,4]thiazino[2,3,4-ij]quinazolin-5-one]",62.2
5,"C=CC(=O)N1[C@H](C)CN(c2nc(=O)n3c4c(c(-c5cc(Cl)c(F)cc5F)c(Cl)cc24)SC[C@H](OC)C3)C[C@@H]1C [Example 542, (3R)-8-((3S,5R)-4-acryloyl-3,5-dimethylpiperazin-1-yl)-10-chloro-11-(5-chloro-2,4-difluorophenyl)-3-methoxy-3,4-dihydro-2H,6H-[1,4]thiazepino[2,3,4-ij]quinazolin-6-one]",96
6,"C=CC(=O)N1CCN(c2nc(=O)n3c4c(c(-c5ccc(F)cc5F)c(C(F)(F)F)cc24)SC[C@@H]3CC2CCOCC2)[C@@H](C)C1 [Example 437, (3S)-7-((S)-4-acryloyl-2-methylpiperazin-1-yl)-10-(2,4-difluorophenyl)-3-((tetrahydro-2H-pyran-4-yl)methyl)-9-(trifluoromethyl)-2H-[1,4]thiazino[2,3,4-ij]quinazolin-5(3H)-one]",95.7

# Same assay, conditions: 10 uM, 60 min; Table 2a
row,% CAF 10 uM @ 60 min [%],Structure (SMILES)
1,75,"C[C@H]1CN(C(=O)/C=C/C(F)F)CCN1c1nc(=O)n2c3c(c(-c4cc(F)cc(Cl)c4)c(Cl)cc13)SCC2 [Example 63, (S,E)-9-chloro-10-(3-chloro-5-fluorophenyl)-7-(4-(4,4-difluorobut-2-enoyl)-2-methylpiperazin-1-yl)-2,3-dihydro-5H-[1,4]thiazino[2,3,4-ij]quinazolin-5-one]"

# Same assay, conditions: 10 uM, 1 h; Table 3
row,"% CAF @ 10 uM, 1h [%]",Structure (SMILES)
1,95.1,"C=CC(=O)N1CCN(c2nc(=O)n3c4c(c(-c5ccc(F)cc5F)c(Cl)cc24)SCC3)CC1 [Example 164, 7-(4-acryloylpiperazin-1-yl)-9-chloro-10-(2,4-difluorophenyl)-2,3-dihydro-5H-[1,4]thiazino[2,3,4-ij]quinazolin-5-one]"
2,94.8,"C=CC(=O)N1CCN(c2nc(=O)n3c4c(c(-c5c(F)cc(F)cc5F)c(Cl)cc24)SC[C@H]3CC2CCN(C)CC2)[C@@H](C)C1 [Example 91, (R)-7-((S)-4-acryloyl-2-methylpiperazin-1-yl)-9-chloro-3-((1-methylpiperidin-4-yl)methyl)-10-(2,4,6-trifluorophenyl)-2,3-dihydro-5H-[1,4]thiazino[2,3,4-ij]quinazolin-5-one]"
3,91.3,"C=CC(=O)N1CCN(c2nc(=O)n3c4c(c(-c5ccccc5F)c(Cl)cc24)SCC3)[C@@H](C)C1 (atropisomer, axis not shown) [Example 123, (R)-7-((S)-4-acryloyl-2-methylpiperazin-1-yl)-9-chloro-10-(2-fluorophenyl)-2,3-dihydro-5H-[1,4]thiazino[2,3,4-ij]quinazolin-5-one]"
4,95,"C[C@H]1CN(C(=O)/C=C/C(F)(F)F)CCN1c1nc(=O)n2c3c(c(-c4ccc(F)c(Cl)c4)c(Cl)cc13)SCC2 [Example 93, (S,E)-9-chloro-10-(3-chloro-4-fluorophenyl)-7-(2-methyl-4-(4,4,4-trifluorobut-2-enoyl)piperazin-1-yl)-2,3-dihydro-5H-[1,4]thiazino[2,3,4-ij]quinazolin-5-one]"
5,67,"C[C@H]1CN(C(=O)/C=C/C(F)F)CCN1c1nc(=O)n2c3c(c(-c4cc(F)cc(Cl)c4)c(Cl)cc13)SCC2 [Example 63, (S,E)-9-chloro-10-(3-chloro-5-fluorophenyl)-7-(4-(4,4-difluorobut-2-enoyl)-2-methylpiperazin-1-yl)-2,3-dihydro-5H-[1,4]thiazino[2,3,4-ij]quinazolin-5-one]"
6,28.7,"C=CC(=O)N1CC2CCC1CN2c1nc(=O)n2c3c(c(-c4ccc(F)cc4F)c(Cl)cc13)SCC2 (centres unmarked) [Example 181, 7-(5-acryloyl-2,5-diazabicyclo[2.2.2]octan-2-yl)-9-chloro-10-(2,4-difluorophenyl)-2,3-dihydro-5H-[1,4]thiazino[2,3,4-ij]quinazolin-5-one]"
7,41.4,"C=CC(=O)N1CCN(c2nc(=O)n3c4c(c(-c5cc(OC(F)F)ccc5F)c(Cl)cc24)SCC3)[C@@H](C)C1 [Example 163, 7-((S)-4-acryloyl-2-methylpiperazin-1-yl)-9-chloro-10-(5-(difluoromethoxy)-2-fluorophenyl)-2,3-dihydro-5H-[1,4]thiazino[2,3,4-ij]quinazolin-5-one]"
8,93.5,"C[C@H]1CN(C(=O)/C=C/C(F)F)CCN1c1nc(=O)n2c3c(c(-c4ccc(Cl)c(F)c4)c(Cl)cc13)SCC2 [Example 80, (S,E)-9-chloro-10-(4-chloro-3-fluorophenyl)-7-(4-(4,4-difluorobut-2-enoyl)-2-methylpiperazin-1-yl)-2,3-dihydro-5H-[1,4]thiazino[2,3,4-ij]quinazolin-5-one]"
9,18.9,"C=CC(=O)N1CCN(c2nc(=O)n3c4c(c(-c5cccc6c5CC(=O)N6)c(Cl)cc24)SCC3)[C@@H](C)C1 [Example 105, 7-((S)-4-acryloyl-2-methylpiperazin-1-yl)-9-chloro-10-(2-oxoindolin-4-yl)-2,3-dihydro-5H-[1,4]thiazino[2,3,4-ij]quinazolin-5-one]"

# Same assay, conditions: 10 μM, 1 h; Table 4
row,"% CAF @ 10 μM, 1 h [%]",Structure (SMILES)
1,96.6,"C=CC(=O)N1CCN(c2nc(=O)n3c4c(c(-c5c(F)cc(F)cc5F)c(Cl)cc24)SC[C@H]3CCCN2C[C@@H]3C[C@H]2CO3)[C@@H](C)C1 [Example 339, (R)-3-(3-((1S,4S)-2-oxa-5-azabicyclo[2.2.1]heptan-5-yl)propyl)-7-((S)-4-acryloyl-2-methylpiperazin-1-yl)-9-chloro-10-(2,4,6-trifluorophenyl)-2H-[1,4]thiazino[2,3,4-ij]quinazolin-5(3H)-one]"
